Values quoted from earlier work as cited in US20070190095A1, “Coffee and its derivatives as an animal repellent composition and its use in a molluscicide bait” (priority 2006, published 2007).

Test system: snails
Conditions: 2% solution of caffeine in water sprayed on coconut husk-chip material in which orchids are grown

## Cn1c(=O)c2c(ncn2C)n(C)c1=O [caffeine, Caffeine]
  snails killed: 95%
